Laboratory results taken from US20060089318A1, “Inhibitors of adp-ribosyl transferases, cyclases, and hydrolases” (priority 2002, published 2006).
Like-named read-outs stand apart in the source and are kept apart here.

How the values were obtained:
human CD38 [1] = target: T1, human CD38 (Homo sapiens, UniProt P28907); assay: Competitive and slow-onset inhibition of CD38-catalyzed conversion of NGD+ to cGDPR (295 nm absorbance); format: biochemical; parameters: The soluble domain of human CD38 catalyzes the conversion of NAD^+ to cyclic-ADP-ribose; conditions: for Inhibition of CD38 conversion of NGD+ to cGDPR: even at millimolar concentrations of compound; for Ki: 19° C.
T1 sequence (P28907 43-300 limits assumed): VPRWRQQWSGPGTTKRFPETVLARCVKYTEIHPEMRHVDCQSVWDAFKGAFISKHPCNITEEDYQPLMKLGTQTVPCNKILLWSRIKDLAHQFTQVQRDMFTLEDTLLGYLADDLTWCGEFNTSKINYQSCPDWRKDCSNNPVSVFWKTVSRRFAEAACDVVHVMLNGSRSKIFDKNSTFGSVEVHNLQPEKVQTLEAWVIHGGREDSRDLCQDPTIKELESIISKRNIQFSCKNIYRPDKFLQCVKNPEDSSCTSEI
Experimental: Determination of Ki and kon by competitive method. To 1 mL solutions of 50 mM potassium phosphate pH 7.2 and 100 μM NGD^+ containing, 50, 25, 12.5, and 6.25 and 0 μM inhibitor 1 was added 2 μL of 7 μM CD38. Reaction progress upon initiation by enzyme addition was monitored by measurement of […] absorbance. The initial slopes were used to determine the Ki value, and all points of the experiment were fit to the equation A(t)=vt+(b−v)(1−exp(−kt))/k+A0 where k is the observed rate constant, b is the initial rate, v is the final rate and A0 is the initial absorbance was used to evaluate kon.
Determination of Competitive Inhibition by Initial Rates: The inhibitors 1-3 were evaluated for inhibition of CD38 enzymatic activity using a spectrophotometric assay. CD38 catalyzes the conversion of NGD^+ to cyclic-GDP ribose (cGDPR, Scheme 4) and product formation can be monitored by 295 nm absorbance measurement. […] A similar reaction containing 40 μM NGD^+ at several concentrations of 2 was also performed (FIG. 3).
Slow Phase Inhibition. […] This slow phase was not due to substrate depletion and was attributable to a kinetic process leading to progressive inhibition of the enzyme. The “slow-onset” absorbance curves could be fit using the equation At=vit+(vi−vf)(1−exp(−kt))/k+A0 where At is absorbance, vi is initial velocity, vf is final velocity, t is time in s, k is the rate of the slow onset process and A0 is absorbance of the sample at initial time. These fits are shown by the solid lines in FIG. 2 and FIG. 3. The rate constant for the slow phase could be obtained from the average value of k determined from the separate fits. The value of k for 1 was determined to be 0.0042±0.001 s^−1 and the value of k for 2 was determined to be 0.0083±0.002 s^−1. The parameter k is defined as kon in Scheme 5. [drawing 22]
Calculation of Total Inhibition. […] This equation is valid for slow onset behavior inhibitors and also mechanistic based inactivators of enzymes where a slow recovery of the enzyme from chemical inactivation is present.

CD38 [2] = target: T2, CD38 (Homo sapiens, UniProt P28907); conditions: comparison values for substrates; read-out: Km of substrate for CD38; cited from earlier work
T2 sequence (P28907 45-300 limits assumed): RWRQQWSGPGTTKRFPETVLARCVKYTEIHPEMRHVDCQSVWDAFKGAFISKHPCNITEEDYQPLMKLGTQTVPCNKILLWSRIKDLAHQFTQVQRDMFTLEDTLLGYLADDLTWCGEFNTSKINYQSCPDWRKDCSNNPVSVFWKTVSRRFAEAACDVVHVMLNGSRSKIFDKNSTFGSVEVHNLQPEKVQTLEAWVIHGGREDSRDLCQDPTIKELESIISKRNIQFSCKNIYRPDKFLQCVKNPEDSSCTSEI

human CD38 [3] = target: T1, human CD38; assay: Radiochemical measurement of inhibitor binding (labeling of CD38 by [2'-3H] inhibitor, gel filtration and scintillation counting); parameters: The soluble domain of human CD38 catalyzes the conversion of NAD^+ to cyclic-ADP-ribose; conditions: 25° C.; 9 μM inhibitor, 1.2 μM CD38 monomer
Experimental: Radiochemical measurement of inhibitor binding. […] Inhibitor at 9 μM with specific radioactivity of 866 cpm/nmol, was incubated with 1.2 μM CD38 (monomer) in 1 mL 50 mM potassium phosphate (pH 7.5). The reactions were started by enzyme addition and quenched by freezing with a dry ice/acetone bath at 30, 60 90, 120, 250, 500, and 1000 s. Cooled (0° C.) gel filtration columns were used to separate protein with cooled (0° C.) 10 mM potassium phosphate as eluant. The frozen fraction were quickly thawed, applied to these columns and fractions collected in 1 mL volumes over the course of several minutes. Scintillation fluid (9 mL) was then added to each 1 mL fraction and samples counted. […] The observed radioactivity was fit using the equation A(t)=A0(1−exp(−kt))+B. where A0 is activity at reaction completion, k is the observed pseudo-first order rate constant and B is the activity of the blank.
Titration of Enzyme with [2′-^3H]Inhibitor. CD38 inactivation was accomplished using a radiolabeled inhibitor to assess inhibitor interactions with the enzyme independent from inhibition of the catalytic activity. This method allows the determination of the stoichiometry of covalent labeling, and detects cooperativity at multiple sites. […] (FIG. 8) within reasonable agreement with the rate constant for inactivation in kinetic assays of inhibition (kon=0.0042 s^−1 at 19° C.). […]

CD38 [4] = conditions: literature values (Sauve et al., 2000; Muller-Steffner et al., 1992); cited from earlier work
human CD38 [5] = target: T1, human CD38; assay: Off-rate measurement: recovery of inhibited CD38 in excess NGD+; format: biochemical; parameters: The soluble domain of human CD38 catalyzes the conversion of NAD^+ to cyclic-ADP-ribose; conditions: 19° C.
Experimental: Off-Rate Measurement. 500 nM CD38 in 50 mM potassium phosphate pH 7.2 was incubated with 15 μM inhibitor for 30 min at room temperature. 5 μL of the enzyme inhibitor solution was added to a cuvette containing 1 mL reaction of 50 mM potassium phosphate pH 7.5 containing 300 μM NGD^+ pre-chilled to 19° C. Production of […] was determined by monitoring […] absorbance. The absorbance was fit to the equation A(t)=vt+(b−v) (1−exp(−kt))k+A0 where A(t) is the absorbance, k is the rate constant of recovery, b is the initial rate, v is the final rate and A0 is the initial absorbance. A control lacking inhibitor but in all other respects identical was also run.
Recovery from Inhibition. […] The solution 295 nm absorbance is monitored spectrophotometrically to assay conversion of NGD^+ to cGDPR as a consequence of regain of CD38 catlytic activity. […] The absorbance curves with the same equation used for slow-onset: At=vit+(vi−vf)(1−exp(−kt))/k+A0 where At is absorbance, vi is initial velocity, vf is final velocity, t is time in s, k is the rate of the recovery rate constant and A0 is the absorbance of the sample at initial time. The rate constant for the recovery phase was obtained from the average value of k determined from the separate fits. The value of koff for 1 was determined to be 1.5×10^−5 s^−1 and for 2 was determined to be 2.5×10^−5 s^−1.

[6] = Solution hydrolysis (chemical stability); format: physicochemical
Excerpt: Without being bound to any particular mechanism, it is believed that the electron-contributing moiety on A stabilizes the compounds of the invention such that they are less susceptible to hydrolysis from the rest of the compound. For example, the compound β-1′-5-methyl-nicotinamide-2′-deoxyribose (established as an effective inhibitor of CD38 in Example 1) was compared with β-1′-nicotinamide-2′-deoxyribose in its ability to resist solution hydrolysis. […] This difference in chemical stability means that β-1′-nicotinamide-2′-deoxyribose is 50% depleted from solution in 2 hours, whereas β-1′-5-methyl-nicotinamide-2′-deoxyribose is not hydrolyzed by 50% until 12 hours. This improved chemical stability improves the value of the compound, since it is available for action for longer periods of time in biological systems due to resistance to hydrolytic breakdown.

human CD38 [7] = target: T1, human CD38; assay: CD38-catalyzed base-exchange reaction of 2 with nicotinamide to form 1 (HPLC); format: biochemical; parameters: The soluble domain of human CD38 catalyzes the conversion of NAD^+ to cyclic-ADP-ribose
Experimental: Base-exchange reaction. […] These reactions were run separately in autosampler tubes held at 19° C. in a temperature regulated autosampler and assayed by multiinjection HPLC using 5 mM K2PO4H pH 5.0 and 2.5% MeOH as eluant. The quantity of 2 reacted and the quantity of 1 formed versus time was determined by integrations of the peaks for 1 and 2 with comparison to standards.

human CD38 [8] = target: T1, human CD38; conditions: read-out: Apparent Km for nicotinamide rescue of CD38 activity; CD38 preinhibited by 2
Experimental: 10 mL CD38 (1 μM) in K2PO4H was incubated with 2 (10 μM) for 30 minutes at room temperature and subsequently placed on ice. […] To a two syringe Applied Photophysics spectrophotometer in fluorescence mode was added inhibited enzyme to one syringe and NGD^+ solution to the other. Fluorescence was used to monitor cGDPR formation and the total fluorescence curves fit using the activity recovery equation. F(t)=vt+(b−v)(1−exp(−kt))/k+F0 where k is the observed rate constant, b is the initial rate, v is the final rate and F0 is the initial absorbance.
A stopped flow, two syringe fitted spectrophotometer was used to perform the experiments. The fluorescence of cGDPR was measured as a function of time to generate curves that contain an exponential and a linear phase prior to substrate exhaustion. These curves were fit to the equation Ft=vft+(vi−vf)(1−exp(−kt))/k+F0 as previously defined.

CD38 [9] = target: T2, CD38; conditions: read-out: Apparent Km for nicotinamide rescue; CD38 inactivated by ara-F-NMN+; cited from earlier work
[10] = 100 μM NGD+ for 1, 40 μM NGD+ for 2, 50 mM potassium phosphate pH 7.2, read-out: Ki (competitive inhibition, from initial rates)
[11] = calculated from the kinetic parameters, read-out: Ki(total) = (koff/kon)*Ki, effective dissociation constant
[12] = 10 mM potassium phosphate, pH 6.5, 25° C.

For `NC(=O)c1ccc[n+](C2CC(O)C(CO)O2)c1` (single isomer, unassigned) [α isomer of 1], the “Inhibition of CD38 conversion of NGD+ to cGDPR” value (from here on “Inhibition … to cGDPR”) (human CD38 [1]) was “did not inhibit”.
With `Cc1cc(C(N)=O)c[n+](C2CC(O)C(CO)O2)c1` (single isomer, unassigned) [α isomer of 2] the “Inhibition … to cGDPR” value (human CD38 [1]) was “did not inhibit”.
For `NC(=O)c1ccc[n+]([C@@H]2O[C@H](COP(=O)([O-])OP(=O)(O)OC[C@H]3O[C@@H](n4cnc5c(N)ncnc54)[C@H](O)[C@@H]3O)[C@@H](O)[C@H]2O)c1` [NAD^+, nicotinamide adenine dinucleotide], the Km (CD38 [2]) is given as 15 µM.
In the case of `NC(=O)c1ccc[n+]([C@@H]2O[C@H](COP(=O)([O-])OP(=O)(O)OC[C@H]3O[C@@H](n4cnc5c(=O)[nH]c(N)nc54)[C@H](O)[C@@H]3O)[C@@H](O)[C@H]2O)c1` [NGD^+, nicotiramide guanine dinucleotide], the Km (CD38 [2]) is listed as 2.5 µM.
For `NC(=O)c1ccc[n+]([C@@H]2O[C@H](COP(=O)(O)O)[C@@H](O)[C@H]2O)c1` [NMN^+], the Km (CD38 [2]) is given as 150 µM.
With `[3H]C1[C@H]([n+]2cccc(C(N)=O)c2)O[C@H](CO)[C@H]1O` (stereo partly shown) [[2-^3H]-1, [2′-^3H]Nicotinamide deoxyriboside] the “Rate constant of radiochemical labeling of CD38 (kchem)” value (human CD38 [3]) was 0.01 s⁻¹.
In the case of `NC(=O)c1ccc[n+]([C@@H]2O[C@H](COP(=O)([O-])OP(=O)(O)OC[C@H]3O[C@@H](n4cnc5c(N)ncnc54)[C@H](O)[C@@H]3O)[C@@H](O)[C@H]2F)c1` [ara-F-NAD^+], the Ki (CD38 [4]) is listed as 169 nM.
For `NC(=O)c1ccc[n+]([C@@H]2O[C@H](COP(=O)(O)O)C(O)C2F)c1` (stereo partly shown) [ara-F-NMN^+], the Ki (CD38 [4]) is listed as 61 nM.
With `NC(=O)c1ccc[n+]([C@H]2C[C@H](O)[C@@H](CO)O2)c1` [inhibitor 1, β-nicotinamide-2′-deoxyriboside] the “koff (rate constant of recovery from inhibition)” value (human CD38 [5]) was roughly 2e-05 s⁻¹, the Ki (human CD38 [1]; [10]) was 1200 nM and the Ki (human CD38 [1]; [11]) was 4.5 nM. The “Rate constant of radiochemical labeling of CD38 (kchem)” value (human CD38 [3]) was 0.01 s⁻¹, the “Rate constant for solution hydrolysis” value [6, 12] was 9.6e-05 s⁻¹ and the “Time to 50% depletion from solution by hydrolysis” value [6] was 2 h.
For `Cc1cc(C(N)=O)c[n+]([C@H]2C[C@H](O)[C@@H](CO)O2)c1` [inhibitor 2, β-5-methyl-nicotinamide-2′-deoxyriboside], the “koff (rate constant of recovery from inhibition)” value (human CD38 [5]) was roughly 2e-05 s⁻¹, the Ki (human CD38 [1]; [10]) was 4000 ± 500 nM and the Ki (human CD38 [1]; [11]) was 12.5 nM. The “kcat of base exchange (2 to 1)” value (human CD38 [7]; 75 μM 2, 1 μM CD38, nicotinamide 0-40 mM, 19° C.) was 0.007 s⁻¹, the “Decrease in the rate of hydrolysis versus β-1′-nicotinamide-2′-deoxyribose (factor)” value [6, 12] was 6 and the “Rate constant for solution hydrolysis” value [6, 12] was 1.5e-05 s⁻¹. For the same molecule, the “Time to 50% depletion from solution by hydrolysis” value [6] was 12 h.
With `OC[C@H]1O[C@@H]([n+]2ccccc2)C[C@@H]1O` [inhibitor 3, β-pyridyl-deoxyriboside] the “Inhibition … to cGDPR” value (human CD38 [1]) was “did not inhibit”.
In the case of `NC(=O)c1cccnc1` [nicotinamide], the Km (human CD38 [8]) is given as 2400 µM, the Km (human CD38 [7]; read-out: Km of nicotinamide for steady state base exchange, 75 μM 2, 1 μM CD38, 19° C.) is given as 920 µM and the Km (CD38 [9]) is given as 17000 µM.
